The source of these data is patent US9663463B2, “3-azabicyclo[3.1.0]hexane derivative and use thereof for medical purpose” (priority 2013, dated 2017).

The IC50 is the concentration that gives 50% inhibition. The low end stands for inhibition by little substance, the high end for a need for much substance. The term ED50 denotes the dose at which the effect has come halfway, by size or by number of responders.

SMILES strings stand for the structures. Structures can show the parent of a compound that is named as a salt.

The target of one data set is human μ-opioid receptor (Homo sapiens (Human), UniProt P35372). Description: Antagonist activity test using [35S]-GTPγS bond as index using human μ-opioid receptor-expressing cell membrane. It counts as biochemical. The method, then: Cells in which a human μ-opioid receptor had been highly expressed was purchased from ChanTest (Cleveland). The cells were cultured in a carbon dioxide gas culturing apparatus by using a Ham's F12 culture medium (Invitrogen) containing 10% of fetal bovine blood serum, 1% of non-essential amino acids, 0.4 mg/ml of G418, 100 U/ml of penicillin and 100 μg/ml of streptomycin. The cultured cells were suspended by using a 0.25% trypsin 1 mM EDTA solution, the suspension was collected by using phosphate-buffered saline and centrifuged at 4° C. and 1,000 rpm for 10 minute to remove the supernatant, whereby a cell mass was obtained. […] Similar homogenization and centrifugation operations were repeated on the sediment, a homogenized buffer was added again to the obtained sediment, and the resultant was similarly homogenized to give a membrane fraction solution. The obtained membrane fraction solution was dispensed, rapidly frozen and stored under freezing at −70° C. or less until use. Furthermore, the protein concentration of the obtained membrane fraction solution was measured by using a BCA protein Assay Kit (Cat. 23227, Pierce) according to the protocol attached to the kit.
The cell membrane fraction solution in which the human μ-opioid receptor had expressed, which had been stored under freezing, was melted, a GTP assay buffer (100 mM NaCl, 5 mM MgCl2, 1 mM EDTA-containing 50 mM Hepes (pH 7.4)) was added thereto, and the resultant was homogenized repeatedly twice by using a Polytron homogenizer (SMT Multi Disperser PB95) under ice cooling at 12,000 rpm for 20 seconds to give a homogeneous solution, and the homogeneous solution was diluted to 0.036 mg/ml with a GTP assay buffer containing 18.2 μM of GDP (final concentration: […]). The dilution was incubated for 15 minutes or more under ice cooling until the reaction was initiated. […] [^35S]-GTPγS (NEG030X, Perkinelmer) was diluted with a GTP assay buffer so as to be 0.616 nM (final concentration: 0.08 nM). The resultant was diluted with a GTP assay buffer so as to be 200 nM (final concentration: 10 nM) by using [D-Ala^2, N-Me-Phe^4, Gly^5-ol]-enkephalinacetate (DAMGO, Sigma) as a μ-opioid receptor agonist. WGA Coated PVT SPA Beads (RPNQ0001, Perkinelmer) were added so as to be 20 mg/ml with a GTP assay buffer, and the resultant was suspended (final concentration: 1 mg/well). 4 μL/well of a test substance solution, 10 μL/well of a DAMGO solution, 26 μL/well of a [^35S]-GTPγS solution, […] of a suspension liquid of WGA Coated PVT SPA Beads, and 110 μL/well of the membrane fraction solution were added to a 96 well plate (1450-401, Perkinelmer), the top part of the plate was sealed, and a reaction was performed at 30° C. for 60 minutes under stirring with a plate shaker. For each measurement plate, a well to which DMSO had been added instead of the test substance, and a well to which DMSO had been added instead of the test substance and a GTP assay buffer had been added instead of the DAMGO solution were prepared. Furthermore, after the reaction was completed, the reactant was centrifuged at room temperature and 1,000 rpm for 3 minutes, and the radioactivity was measured by a microplate scintillation luminescence counter (Perkinelmer).
The IC50 value of the test substance was calculated by using Graphpad Prism 5.
On the technique in general: GTPγS is a poorly hydrolysed GTP analogue; its binding reports G protein activation.

A further data set is described as follows: in vitro. It counts as in vitro ADME, mice. Particulars: Crl:CD-1 (ICR), mouse, pH 7.4; murine serum, equilibrium dialysis, 37° C., 5 to 6 hours; read-out: Protein binding rate (converted). The method, then:
The protein binding rate was determined by equilibrium dialysis method using the RED Device (8K MWCO, Rapid Equilibrium Dialysis Device, Thermo Scientific). The test substances that had been dissolved in DMSO were added to the serum that was collected from Crl: CD-1 (ICR) mice fasted overnight, so that the final concentration of DMSO became 1% (v/v). The serum to which the test substance had been added was added to the inner side of the dialysis membrane of the RED Device, and PBS (phosphate buffer saline, pH 7.4) containing 0.01% (v/v) Tween 80 was added to the outside in accordance with the method for using the RED Device and incubated at 37° C. for 5 to 6 hours with ellipsoidal shaking at 100 rpm so that the concentration of the unbound test substance in the serum and the concentration of the test substance in the PBS reached equilibrium. After the incubation was completed, the respective solutions were collected and stored under freezing at −60° C. or less as measurement samples. The proteins were removed from the measurement sample by adding acetonitrile in an amount of 5-fold or more of the amount of the internal standard substance and the serum sample, and the supernatants were measured by LC/MS/MS (liquid chromatograph—triple quadrupole mass spectrometer). The serum samples were measured after suitably diluting with distilled water as necessary.
A: the concentration of the test substance in the PBS sample
B: the concentration of the test substance in the serum sample
Background: In equilibrium dialysis free small molecules cross a membrane that holds back macromolecules.

In another data set the target is hERG current (Homo sapiens (Human), UniProt Q12809). Kind of data set: cell-based. An excerpt: A: the suppression rate (%) of the test substance in each cell
hERG current, sequence (Q12809 whole entry): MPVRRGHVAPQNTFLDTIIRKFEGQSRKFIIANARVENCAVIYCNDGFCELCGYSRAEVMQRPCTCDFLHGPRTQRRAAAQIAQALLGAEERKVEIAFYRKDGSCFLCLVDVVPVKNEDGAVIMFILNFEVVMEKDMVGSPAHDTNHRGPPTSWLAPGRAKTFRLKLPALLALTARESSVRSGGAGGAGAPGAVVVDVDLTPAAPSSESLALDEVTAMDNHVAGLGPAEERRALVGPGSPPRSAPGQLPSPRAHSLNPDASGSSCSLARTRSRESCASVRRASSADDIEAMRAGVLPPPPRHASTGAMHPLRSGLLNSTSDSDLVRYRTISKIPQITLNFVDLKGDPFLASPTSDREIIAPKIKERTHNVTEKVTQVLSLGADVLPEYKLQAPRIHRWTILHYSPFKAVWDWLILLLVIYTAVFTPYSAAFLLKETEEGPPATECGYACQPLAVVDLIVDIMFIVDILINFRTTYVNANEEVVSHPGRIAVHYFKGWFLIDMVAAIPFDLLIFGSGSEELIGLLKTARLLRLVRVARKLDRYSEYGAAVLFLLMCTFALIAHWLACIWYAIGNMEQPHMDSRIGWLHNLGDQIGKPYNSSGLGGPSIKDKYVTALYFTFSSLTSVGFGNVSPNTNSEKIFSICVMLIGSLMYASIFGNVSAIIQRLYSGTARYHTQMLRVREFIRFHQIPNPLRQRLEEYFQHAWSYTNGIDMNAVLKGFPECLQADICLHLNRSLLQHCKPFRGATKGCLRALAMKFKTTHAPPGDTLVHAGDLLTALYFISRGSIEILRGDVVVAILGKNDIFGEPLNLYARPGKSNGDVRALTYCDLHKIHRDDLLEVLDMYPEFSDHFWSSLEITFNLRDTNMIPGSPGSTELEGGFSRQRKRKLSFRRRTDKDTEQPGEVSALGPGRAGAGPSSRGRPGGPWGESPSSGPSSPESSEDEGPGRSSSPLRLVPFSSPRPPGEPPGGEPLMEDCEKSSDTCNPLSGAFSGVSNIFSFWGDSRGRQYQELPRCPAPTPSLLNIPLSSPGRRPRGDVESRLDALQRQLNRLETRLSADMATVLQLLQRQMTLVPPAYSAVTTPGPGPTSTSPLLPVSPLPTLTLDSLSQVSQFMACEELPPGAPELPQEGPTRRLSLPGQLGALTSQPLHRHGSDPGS
B: the average suppression rate (%) of the vehicle control group

Data set [1] in a line: Plasma concentration of test substance at ED50 value (mice, LC/MS/MS). It counts as in vivo. The following applies: at the ED50 value, at time of morphine administration, oral, linear regression from two doses. On the procedure:
The concentration of the test substances in blood plasma was confirmed by using mice of the same week-old for the same dose as that used in the evaluation of the anti-pruritic effect. The test substance was administered by forced oral administration of an administration vehicle prepared in a similar manner to that in the evaluation of the anti-pruritic effect under a non-fasting condition. The blood samples were collected from the orbital venous plexus, within from 15 minutes after the administration of the test substance to after 180 minutes at the maximum, for multiple times including the timing at which the morphine solution was intracisternally administered, under inhalation anesthesia with diethyl ether or isoflurane using a heparin-treated hematocrit tubes. The collected blood samples were immediately ice-cooled and centrifuged at 1,800 g for 15 minutes at 4° C., and the plasma fractions were transferred and stored under freezing at −30° C. or less until measurement.
The concentrations of the test substances in plasma were measured using LC/MS/MS. Furthermore, as the measurement samples for LC/MS/MS, the supernatants obtained by adding an internal standard substance and acetonitrile in an amount within a range from 5-fold to 10-fold of the amount of the plasma to the collected plasma samples, and removing proteins therefrom, was used.

The subject of data set [2] is pruritus mice model to which morphine had been intracisternally administered. Kind of data set: Anti-pruritic effect in pruritus mice model to which morphine had been intracisternally administered. The following applies: Mus musculus; oral administration, male ICR mice, inhibition of morphine-induced scratching behavior; read-out: ED50. It is filed as in vivo. On the procedure:
As experimental animals, male ICR (Cr1j: CD1 (ICR): Charles River Japan) mice were used at 5 to 6-week old. The mice were placed in an acrylic cage (colorless and transparent, W 13.5 cm×D 9.5 cm×H 40 cm) for observing scratching behavior for 30 minutes or more to thereby allow the mice to get used to the observation environment, and the test substance solutions were forcedly orally administered to the test substance-administered groups. In addition, an administration vehicle was forcedly orally administered to the normal control group and the pathological control group. A necessary amount of the test substance was weighed and formed into a micropowder in an agate mortar, an administration vehicle, a 0.5 w/v % methyl cellulose 400 solution (Wako Pure Chemical Industries Ltd.) was added little by little, and preparation was performed by suspending or dissolving so as to give an intended concentration (from 0.025 to 3 mg/ml). The test doses were preset to suitable doses in the range in which the maximum dose is 30 mg/10 ml/kg.
Based on 30 minutes after the forced oral administration of the test substance as a criterion, the time for the intracisternal administration of morphine was suitably set up to 120 minutes after at the maximum, with consideration for the times of maximum plasma concentration of the respective test substances, in the case when the in vivo pharmacokinetics of the test substance had been confirmed in advance. Furthermore, saline was intracisternally administered to the normal control group, and the above-mentioned morphine solution was intracisternally administered to the pathogenic control group, so as to be 5 μL/site at the same time as that of the test substance group after the forced oral administration of the administration vehicle in either case.
The behavior of each mouse within 60 minutes from the intracisternal administration of the morphine solution or saline was recorded by a digital video camera that was installed immediately above the acrylic cage, the images were stored in a digital video recorder, and the number of frequency of the scratching behavior was measured. The number of frequency of the scratching behavior was measured with deeming a behavior in which the mouse raised its hindlimb, scratched the facial surface and the peripheral sites thereof, and got the hindlimb off from the body within 30 minutes from after the intracisternal administration of the morphine or saline as one time.
The anti-pruritic effect of each test substance was obtained as follows. As an inhibition ratio against the number of frequency of the scratching behavior on the pathological control group, the inhibition ratio (%) of the respective individuals and the average value thereof were calculated from the following formula, and an ED50 value was calculated based on the obtained inhibition ratio. Inhibition ratio of each individual (%)={1−(A−Vehicle)/(Morphine−Vehicle)}×100 Morphine: the average of the scratching number of the pathological control group Vehicle: the average of the scratching number of the normal control group A: the scratching number of each individual in the test substance-administered group

The molecule `CC[C@]1(c2cccc(NS(=O)(=O)C3CC3)c2)[C@@H]2CN(CC3(O)Cc4ccccc4C3)C[C@@H]21` [Example 1-(b), N-(3-{(1R,5S,6r)-6-ethyl-3-[(2-hydroxy-2,3-dihydro-1H-inden-2-yl)methyl]-3-azabicyclo[3.1.0]hexan-6-yl}phenyl)cyclopropanesulfonamide hydrochloride] yielded a concentration for half-maximal inhibition (IC50) against human μ-opioid receptor of 1.5 nM.
Consider `COC1(CN2C[C@@H]3[C@H](C2)[C@@]3(C)c2cccc(NS(=O)(=O)C3CC3)c2)Cc2ccccc2C1` [Example 18-(b), N-(3-{(1R,5S,6r)-3-[(2-methoxy-2,3-dihydro-1H-inden-2-yl)methyl]-6-methyl-3-azabicyclo[3.1.0]hexan-6-yl}phenyl)cyclopropanesulfonamide hydrochloride], for which the fraction unbound in “in vitro” is 0.007. Further, the concentration for half-maximal inhibition (IC50) on hERG current came out at 400 nM; against human μ-opioid receptor, 16 nM.
As to `CC[C@]1(c2cc(NS(=O)(=O)C3CC3)ccc2F)[C@@H]2CN(CCCN3CCC(F)(F)C3)C[C@@H]21` [Example 9-(b), N-(3-{(1R,5S,6r)-3-[3-(3,3-difluoropyrrolidin-1-yl)propyl]-6-ethyl-3-azabicyclo[3.1.0]hexan-6-yl}-4-fluorophenyl)cyclopropanesulfonamide hydrochloride], the fraction unbound in “in vitro” was 0.173. Moreover, at human μ-opioid receptor, the midpoint of inhibition, the IC50, lay at 2.5 nM.
In the case of `CC[C@]1(c2cccc(NS(=O)(=O)C3CC3)c2)[C@@H]2CN(CC3(O)Cc4cc(F)c(F)cc4C3)C[C@@H]21` [Example 20-(a), N-(3-{(1R,5S,6r)-3-[(5,6-difluoro-2-hydroxy-2,3-dihydro-1H-inden-2-yl)methyl]-6-ethyl-3-azabicyclo[3.1.0]hexan-6-yl}phenyl)cyclopropanesulfonamide], in the data set “in vitro”, the fraction unbound is 0.006. The half-maximal inhibitory concentration (IC50) on human μ-opioid receptor amounted to 4.1 nM.
The like results for `C=C[C@]1(c2cccc(NS(=O)(=O)C3CC3)c2)[C@@H]2CN(CC3(O)Cc4ccccc4C3)C[C@@H]21` [Example 19-(b), N-(3-{(1R,5S,6r)-3-[(2-hydroxy-2,3-dihydro-1H-inden-2-yl)methyl]-6-vinyl-3-azabicyclo[3.1.0]hexan-6-yl}phenyl)cyclopropanesulfonamide hydrochloride] were, in that order, 0.009 and 4.5 nM.
Regarding `CC[C@]1(c2cc(F)cc(NS(=O)(=O)C3CC3)c2)[C@@H]2CN(CC3(OC)Cc4ccccc4C3)C[C@@H]21` [Example 12-(b), N-(3-{(1R,5S,6r)-6-ethyl-3-[(2-methoxy-2,3-dihydro-1H-inden-2-yl)methyl]-3-azabicyclo[3.1.0]hexan-6-yl}-5-fluorophenyl)cyclopropanesulfonamide hydrochloride], the “Plasma concentration of test substance” value in data set [1] came out at 193 nM. Further, the ED50 in data set [2] was determined as 3.2 mg/kg. Also, in “in vitro”, the fraction unbound is 0.002. In addition, the half-maximal inhibitory concentration (IC50) against human μ-opioid receptor came to 12 nM.
As to `CCOC1(CN2C[C@@H]3[C@H](C2)[C@@]3(CC)c2cccc(NS(=O)(=O)C3CC3)c2)Cc2ccccc2C1` [Example 13-(b), N-(3-{(1R,5S,6r)-3-[(2-ethoxy-2,3-dihydro-1H-inden-2-yl)methyl]-6-ethyl-3-azabicyclo[3.1.0]hexan-6-yl}phenyl)cyclopropanesulfonamide hydrochloride], the “Plasma concentration of test substance” value in data set [1] came out at 71.9 nM. The ED50 in data set [2] worked out at 2.4 mg/kg. Further, at human μ-opioid receptor, the IC50 amounted to 4.1 nM.
In the case of `CC[C@]1(c2cc(NS(=O)(=O)C3CC3)ccc2F)[C@@H]2CN(CC3(OC)Cc4ccccc4C3)C[C@@H]21` [Example 11-(b), N-(3-{(1R,5S,6r)-6-ethyl-3-[(2-methoxy-2,3-dihydro-1H-inden-2-yl)methyl]-3-azabicyclo[3.1.0]hexan-6-yl}-4-fluorophenyl)cyclopropanesulfonamide hydrochloride], the 50% inhibitory concentration (IC50) against human μ-opioid receptor came to 2.8 nM.
Consider `CCOC1(CCCN2C[C@@H]3[C@H](C2)[C@@]3(CC)c2cccc(NS(=O)(=O)C3CC3)c2)CCC(F)(F)CC1` [Example 14-(b), N-(3-{(1R,5S,6r)-3-[3-(1-ethoxy-4,4-difluorocyclohexyl)propyl]-6-ethyl-3-azabicyclo[3.1.0]hexan-6-yl}phenyl)cyclopropanesulfonamide hydrochloride], for which 1.3 nM corresponded to half-maximal inhibition against human μ-opioid receptor (IC50).
